Data as given in US20100249163A1, “RENIN INHIBITORS” (priority 2007, published 2010).

Assays:
[1] = target: T1, human recombinant renin (Homo sapiens, UniProt P00797); assay: Renin IC50, QFRET (quenched fluorescence resonance energy transfer) assay; type: biochemical; settings: FRET (quenched fluorescence resonance energy transfer) assay
T1 sequence (P00797 67-406): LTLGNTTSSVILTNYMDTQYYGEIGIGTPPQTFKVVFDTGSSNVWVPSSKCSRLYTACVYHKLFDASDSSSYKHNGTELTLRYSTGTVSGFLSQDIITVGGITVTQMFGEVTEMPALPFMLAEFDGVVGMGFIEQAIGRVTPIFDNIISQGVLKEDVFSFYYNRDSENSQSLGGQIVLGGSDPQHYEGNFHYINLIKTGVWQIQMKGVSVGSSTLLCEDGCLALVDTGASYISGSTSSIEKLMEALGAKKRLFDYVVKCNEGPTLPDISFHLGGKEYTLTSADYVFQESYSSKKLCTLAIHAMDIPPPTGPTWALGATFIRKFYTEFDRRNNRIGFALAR

[2] = target: T2, renin in human plasma (Homo sapiens, UniProt P00797); assay: Inhibition of renin in human plasma; type: biochemical; settings: human plasma assay
T2 construct: host or cells: recombinant enzyme added to human plasma from 10 normal donors
T2 sequence (P00797 67-406): T1 sequence (P00797 67-406)

| IC50 [1] | IC50 [2] | Structure (SMILES) |
| --- | --- | --- |
| 140 nM | 280 nM | COCCCc1cc(CN(C(=O)[C@H]2CNCC[C@]2(O)c2cccnc2)C2CC2)cc(OCCOC)c1 (racemic) [Example 2, rac-(3S,4R)—N-cyclopropyl-4-hydroxy-N-[3-(2-methoxyethoxy)-5-(3-methoxypropyl)benzyl]-4-pyridin-3-ylpiperidine-3-carboxamide] |
| 76 nM | 136 nM | COCCCc1cc(CN(C(=O)[C@H]2CNCC[C@]2(O)c2ccn(C)c(=O)c2)C2CC2)cc(OCCOC)c1 (racemic) [Example 23, rac-(3S,4R)—N-cyclopropyl-4-hydroxy-N-[3-(2-methoxyethoxy)-5-(3-methoxypropyl)benzyl]-4-(1-methyl-2-oxo-1,2-dihydropyridin-4-yl)piperidine-3-carboxamide] |
| 1 nM | 4.7 nM | COCCCc1cc(CN(C(=O)[C@H]2CNCC[C@]2(OC)c2ccc(F)c(F)c2)C2CC2)cc(OCCOC)c1 (racemic) [Example 35, Rac-(3S,4R)—N-cyclopropyl-4-(3,4-difluorophenyl)-4-methoxy-N-[3-(2-methoxyethoxy)-5-(3-methoxypropyl)benzyl]piperidine-3-carboxamide] |
| 1.1 nM | 61 nM | COCCCc1cc(CN(C(=O)[C@H]2CNCC[C@]2(OCc2ccc(F)cc2)c2ccc(F)c(F)c2)C2CC2)cc(OCCOC)c1 [Example 48, (3S,4R)—N-cyclopropyl-4-(3,4-difluorophenyl)-4-[(4-fluorobenzyl)oxy]-N-[3-(2-methoxyethoxy)-5-(3-methoxypropyl)benzyl]piperidine-3-carboxamide] |
| 2.7 nM | 11 nM | COCCCc1cc(CN(C(=O)[C@H]2CNCC[C@]2(OCCOC)c2ccc(F)c(F)c2)C2CC2)cc(OCCOC)c1 [Example 49, (3S,4R)—N-cyclopropyl-4-(3,4-difluorophenyl)-4-(2-methoxyethoxy)-N-[3-(2-methoxyethoxy)-5-(3-methoxypropyl)benzyl]piperidine-3-carboxamide] |
| 3.9 nM | 21 nM | COCCCc1cc(CN(C(=O)[C@H]2CNCC[C@]2(OCc2cnn[nH]2)c2ccc(F)c(F)c2)C2CC2)cc(OCCOC)c1 [Example 51, (3S,4R)—N-cyclopropyl-4-(3,4-difluorophenyl)-N-[3-(2-methoxyethoxy)-5-(3-methoxypropyl)benzyl]-4-(1H-1,2,3-triazol-5-ylmethoxy)piperidine-3-carboxamide] |
| 2.4 nM | 4.8 nM | COCCc1ccc(Cl)c(CN(C(=O)[C@H]2CNCC[C@]2(OCC(O)CO)c2ccc(F)c(F)c2)C2CC2)c1 (stereo partly drawn) [Example 54, (3S,4R)—N-[2-chloro-5-(2-methoxyethyl)benzyl]-N-cyclopropyl-4-(3,4-difluorophenyl)-4-(2,3-dihydroxypropoxy)piperidine-3-carboxamide] |
